Source: PubChem BioAssay (NCI)
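How tested: cells in 96-well plates exposed to compound for 48 hours at five concentrations. TGI: concentration producing complete growth inhibition.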

Experiments:
Experiment in all cases: NCI-60 cell line screen, 48 h
A549 NSCLC = tested on: A549 NSCLC
COLO 205 colon = tested on: COLO 205 colon
EKVX NSCLC = tested on: EKVX NSCLC
HCT-116 colon = tested on: HCT-116 colon
MCF7 breast = tested on: MCF7 breast
MOLT-4 leukemia = tested on: MOLT-4 leukemia
OVCAR-8 ovarian = tested on: OVCAR-8 ovarian
RXF 393 renal = tested on: RXF 393 renal
SF-295 CNS = tested on: SF-295 CNS
SF-539 CNS = tested on: SF-539 CNS
SK-MEL-2 melanoma = tested on: SK-MEL-2 melanoma
SN12C renal = tested on: SN12C renal
SNB-19 CNS = tested on: SNB-19 CNS
SNB-75 CNS = tested on: SNB-75 CNS
T-47D breast = tested on: T-47D breast
UACC-62 melanoma = tested on: UACC-62 melanoma
HOP-92 NSCLC = tested on: HOP-92 NSCLC

| Compound | TGI (A549 NSCLC) | TGI (COLO 205 colon) | TGI (EKVX NSCLC) | TGI (HCT-116 colon) | TGI (MCF7 breast) | TGI (MOLT-4 leukemia) | TGI (OVCAR-8 ovarian) | TGI (RXF 393 renal) | TGI (SF-295 CNS) | TGI (SF-539 CNS) | TGI (SK-MEL-2 melanoma) | TGI (SN12C renal) | TGI (SNB-19 CNS) | TGI (SNB-75 CNS) | TGI (T-47D breast) | TGI (UACC-62 melanoma) | TGI (HOP-92 NSCLC) |
| --- | --- | --- | --- | --- | --- | --- | --- | --- | --- | --- | --- | --- | --- | --- | --- | --- | --- |
| CNc1cc(Cl)ccc1C(=O)N1CCC[C@H]1CO | > 100 µM | > 100 µM | > 100 µM | > 100 µM | > 100 µM | > 100 µM | > 100 µM | > 100 µM | > 100 µM | > 100 µM | > 100 µM | > 100 µM | > 100 µM | > 100 µM | > 100 µM | > 100 µM |  |
| CCCCCCCCCc1cc(=O)c2c(O)cc(O)cc2o1 | 35.5 µM | 54.2 µM | 37.5 µM | 47.6 µM |  | 22.3 µM | 40.2 µM | 31.3 µM | 36 µM | 34.4 µM | 34.3 µM | 38.9 µM | 34.7 µM | 33.2 µM | 51.1 µM |  | 33.7 µM |
| COc1ccc(OC)c2c1ccc1c(C)c3ccccc3c(C)c12 |  |  |  | > 100 µM | > 100 µM | > 100 µM | > 100 µM |  |  |  | > 100 µM | > 100 µM | > 100 µM | > 100 µM | > 100 µM | > 100 µM |  |
| O=S(=O)(N1CCCCN(S(=O)(=O)C(F)(F)F)CCCN(S(=O)(=O)C(F)(F)F)CCCCN(S(=O)(=O)C(F)(F)F)CCCN(S(=O)(=O)C(F)(F)F)CCCCN(S(=O)(=O)C(F)(F)F)CCCN(S(=O)(=O)C(F)(F)F)CCCCN(S(=O)(=O)C(F)(F)F)CCC1)C(F)(F)F | > 31.6 µM | > 100 µM | > 31.6 µM | > 31.6 µM |  | > 31.6 µM | > 31.6 µM | > 31.6 µM | > 31.6 µM | > 31.6 µM | > 100 µM | > 31.6 µM | > 31.6 µM | > 31.6 µM | > 31.6 µM | > 31.6 µM | > 31.6 µM |
| N#Cc1n[nH]n(-c2ccccc2)c1=O | > 100 µM | > 100 µM | > 100 µM | > 100 µM | > 100 µM | > 100 µM | > 100 µM | > 100 µM | > 100 µM | > 100 µM | > 100 µM | > 100 µM | > 100 µM | > 100 µM | > 100 µM | > 100 µM |  |
| O=C(O)c1ccc2[nH]c(=O)oc2c1 |  | > 100 µM | > 100 µM | > 100 µM | > 100 µM | > 100 µM | > 100 µM | > 100 µM | > 100 µM | > 100 µM | > 100 µM | > 100 µM | > 100 µM | > 100 µM |  | > 100 µM |  |
| O=c1[nH]nc(Cc2ccc(Cl)cc2)n1CCO | > 100 µM | > 100 µM | > 100 µM | > 100 µM | > 100 µM | > 100 µM | > 100 µM |  | > 100 µM | > 100 µM | > 100 µM | > 100 µM | > 100 µM |  | > 100 µM | > 100 µM | > 100 µM |
| O=[N+]([O-])c1ccc2nc(/C=C(\O)c3ccccc3)c(NC34CC5CC(CC(C5)C3)C4)nc2c1 |  | > 10 µM | > 10 µM |  | > 10 µM |  | > 10 µM | > 10 µM | > 10 µM | > 10 µM | > 10 µM | > 10 µM |  | > 10 µM | > 10 µM |  |  |
| O=C(Cn1c2c(c3ccccc31)CCCC2)N1CCOCC1 | > 100 µM | > 100 µM | > 100 µM | > 100 µM | > 100 µM | > 100 µM | > 100 µM |  | > 100 µM | > 100 µM | > 100 µM | > 100 µM | > 100 µM |  |  | > 100 µM | > 100 µM |
| COc1cccc(C=C(C#N)C#N)c1OC | > 100 µM | > 100 µM | > 100 µM | > 100 µM | > 100 µM | > 100 µM | > 100 µM | > 100 µM | > 100 µM | > 100 µM |  | > 100 µM | > 100 µM | > 100 µM |  | > 100 µM | > 100 µM |
| CN1CCN(c2ccc3nc(-c4ccc5nc(CCCc6ccc(N(CCCl)CCCl)cc6)[nH]c5c4)[nH]c3c2)CC1 | > 100 µM | > 100 µM |  | > 100 µM | > 100 µM | > 100 µM | > 100 µM | > 100 µM | > 100 µM | > 100 µM | > 100 µM | > 100 µM | > 100 µM | > 100 µM | > 100 µM | > 100 µM | > 100 µM |
| FC(F)(F)c1nc2c(ccc3[nH]c4c(-c5ccccc5)nccc4c32)[nH]1 | > 100 µM | > 100 µM | > 100 µM | > 100 µM |  | > 100 µM | > 100 µM | > 100 µM | > 100 µM | > 100 µM | > 100 µM | > 100 µM | > 100 µM | > 100 µM |  | > 100 µM | > 100 µM |
| CN1C(CC(O)c2ccccc2)CCCC1CC(O)(c1ccccc1)c1ccccc1 (stereo not drawn) | 50 µM | 34.2 µM | 64.5 µM | 29.1 µM | 43.4 µM | 54.9 µM | 43 µM | 28.9 µM | 30.8 µM | 27.3 µM |  | 32.3 µM | 36.3 µM | 44.8 µM | 52.7 µM | 40.7 µM |  |
| O=C1c2ccccc2C(=O)c2c1sc1nc3ccccc3n21 | 25.1 µM | 3.61 µM | 4.6 µM | 3.25 µM | 3.84 µM | 4.89 µM | 3.82 µM | 3.31 µM | 3.04 µM | 3.81 µM |  | 2.85 µM | 4.42 µM | 46.1 µM | 9.02 µM | 3.51 µM | 74.1 µM |
| CN(C)c1ccc(C2=C([O-])c3cc(-[n+]4ccccc4)ccc3C2=O)cc1 | > 100 µM | > 100 µM | > 100 µM | > 100 µM | > 100 µM | > 100 µM | > 100 µM | > 100 µM | > 100 µM | > 100 µM |  | > 100 µM | > 100 µM | > 100 µM |  |  | > 100 µM |
